# Measurements: patent US20250041373A1, “EXTRACTION METHOD OF HIBISCUS SABDARIFFA L. TAITUNG NO. 6, HIBISCUS SABDARIFFA L. TAITUNG NO. 6 EXTRACT USING THE SAME, AND USES THEREOF” (WEL-BLOOM BIO-TECH CORPORATION, priority 2023, published 2025)
# Test system: B16-F10 melanoma cells
# Assay: melanin content analysis in α-MSH-treated B16-F10 melanoma cells
# Type: cell-based
# Conditions: co-treatment with 500 nM α-MSH; positive control, concentration not given; FIG. 6
# Experimental: Further, in the present embodiment, an ability of the Hibiscus sabdariffa L. ‘TAITUNG NO. 6’ extract to inhibit melanin production is evaluated by a melanin content analysis, and a method thereof is as follows. B16-F10 melanoma cells (1×10^5) are seeded in a 24-well culture plate and treated with 500 nM α-melanocyte stimulating hormone (α-MSH) at 37° C. for 24 hours. Then, these cells are treated with various concentrations of the Hibiscus sabdariffa L. ‘TAITUNG NO. 6’ extract for 48 hours, and are treated with trypsin after being rinsed with PBS. A cell pellet is collected by centrifugation at 10,000 g for 20 minutes at a room temperature, and is then lysed with 1N NaOH for 60 minutes. The melanin content is analyzed by comparing an absorbance value of a test sample at 405 nm with a standard curve obtained by using a synthetic melanin.
compound,measurement,value
O=c1cc(CO)occ1O [kojic acid],melanin content of the melanoma cells,significantly decreased
